This note sets out measurements from patent publication US8691183B2, “Means for the detection and treatment of prostate cells” (Eberhard-Karls-Universitaet Tuebingen Universitaetsklinikum, priority 2008, dated 2014).

Entries after “also recorded” stand apart in the source; their conditions may differ.

The subject of test [1] is other tumor cell lines (non-prostate). The test can be described thus: In-vitro MRT / MR relaxometry of cells in Eppendorf tubes. Type of test: cell-based, human. The settings on record: other carcinoma cells; incubation, washed three times with PBS. Here is the method: (§1) For the MR relaxometry, all tumor cell lines were grown in 75 cm^2 culture flasks (Corning Costar, Bodenheim, Germany) (70% confluency). Accutase™ (PAA Laboratories, Pasching, Austria) was added to achieve detachment of the cells, which were harvested and subsequently aliquoted into Eppendorf tubes (6×10^6 cells per tube). The cells in the tubes were incubated with the DOTA-containing compounds (130 μM). After a 20 minutes incubation period at 37° C. in an atmosphere of 5% CO2, the cells were washed three times in PBS and centrifuged at 800 rpm for 5 minutes.
(§2) The in-vitro MRT was performed with a 3 Tesla-whole body MRT system (Magnetom TRIO, circular polarized wrist coil, Siemens, Erlangen, Germany)
(§3) Sagittal T1-weighted MR images were obtained using the following spin-echo sequence:
(§4) Repetition time (TR): 200 ms, echo time (TE): 7,4 ms, flip angle: 90°, averages: 1, concatenations: 2, measurements: 1, number of slices: 19, distance factor: 30%, slice thickness: 3 mm, field of view read: 180 mm/100%, resolution: 256/100%, voxel size: 0.7×0.7×3.0 mm, scan time: 1:48 min.
(§5) The T1 relaxation times were evaluated from signal intensities obtained by multiple spin-echo measurements:
(§6) Repetition time (TR): 20-8000 ms (50 different TR values), echo time (TE): 6.4 ms, flip angle: 90°, averages: 1, measurements: 1, number of slices: 1, slice thickness: 1 mm, field of view read: 120 mm/87.5%, resolution: 128/100%, voxel size: 0.9×0.9×1 mm.
(§7) The analysis and calculations were performed using a Matlab program (Math Works, Natick, Mass., USA). The T1 values were approximated by a three-parameter fit procedure. All signal curves were examined and found to be monoexponential. The investigations were performed in triplicate.

Test [2] relates to LNCaP prostate carcinoma cells. The description is as above. Type of test: cell-based, human. The settings on record: for uptake / signal intensity of the cells in T1-weighted MRT images: 20 minutes incubation, washed, 130 μM. The protocol: as §1, §2, §3, §4, §5, §6, §7
For test [3], the system named is colon carcinoma cells (Colo205). The test can be described thus: Confocal laser scanning microscopy (CLSM) of cellular uptake. In kind it is cell-based, human. The settings on record: 20 minutes incubation, 10 μg/ml. The protocol:
(§8) The cells were grown to 80% confluency at 37° C., 5% CO2 (vol/vol) in 4-well plates (NUNC, Wiesbaden, Germany) with about 300,000 cells per well.
(§9) U373 human glioma cells, human prostate carcinoma cells PC3 and LNCaP, human Jurkat lymphoma cells, and human colon carcinoma cells Colo205 were grown in RPMI1640 ready mix medium containing L-glutamine and 10% fetal bovine serum (FBS)-gold (PAA Laboratories, Pasching, Austria). U2OS human osteosarcoma cells and HeLa human cervix carcinoma cells were grown in high glucose Dulbeccos modified Eagle's medium containing GlutaMax™ and pyrovate and 10% FBS-gold. Healthy human prostate cells (CC2555, Lonza, Verviers, Belgium) were cultivated in prostate endothelial cell growth medium (PrEGM, Lonza, Verviers, Belgium).
(§10) The compounds 1, 2 and 4 were dissolved at 1 mg/ml in pure ethanol (Riedel de Haen, Sigma-Aldrich, Taufkirchen, Germany) and then diluted in the appropriate medium for the cells to 10 μg/ml of conjugate and 1% ethanol. The cells were incubated at 37° C. in an atmosphere of 5% CO2 for 20 minutes with the compounds. After this, the cells were rinsed three times with medium and then incubated with medium again. This experiment was also performed with free sulforhodamine B with a corresponding amount.
(§11) The confocal laser scanning microscopy was performed on an inverted LSM510 laser scanning microscope (Carl Zeiss) (objective: LD Achroplan 40×0.6, Plan Neofluar 20×0.50, 40×0.75). For the rhodamine fluorescence excitation the 543 nm beam of a helium-neon laser with suitable beam splitters and barrier filters were used. All measures were performed at least three times on living, non-fixed cells.

The test system of test [4] is LNCaP prostate carcinoma cells. The description is as above. Type of test: cell-based, human. Particulars: 20 minutes incubation, 10 μg/ml. Here is the method: as §8, §9, §10, §11
The test system of test [5] is PC-3 prostate carcinoma cells. The test can be described thus: Fluorescence activated cell sorting (FACS) of cellular uptake. Type of test: cell-based, human. Particulars: 20 minutes incubation. The protocol:
(§12) For the fluorescence activated cell sorting (FACS), cells were grown in 75 cm^2 culture flasks (Corning Costar, Bodenheim, Germany) (80% confluency) under the same conditions as described for the confocal laser scanning microscopy. Accutase™ (PAA Laboratories, Pasching, Austria) was added to achieve detachment of the cells, which were harvested and subsequently alequoted into Eppendorf tubes (Eppendorf, Hamburg, Germany) (1×10^6 cells per tube). The cells were incubated for 20 minutes with the compounds 1, 2 and 4 (10 μg/ml in the appropriate medium with 1% ethanol) and the compound 10 (130 μM in the appropriate medium).
(§13) Afterwards, the cells were washed three times in PBS and centrifuged at 800 rpm for 5 minutes. Then 300 μl FACS buffer (D-PBS containing 1% parafomaldehyde) were added. The samples were measured immediately. Approximately 20,000 events were recorded per sample. The fluorescence excitation was achieved by an argon laser (488 nm). The fluorescence was detected using a 580-610 and a 560-680 nm band-pass filter. All investigations were performed in triplicate.
(§14) Mean rhodamine and fluorescein isothiocyanate fluorescence values of the samples were acquired using the WinMDI software (Joseph Trotter, Scripps Research Institute, San Diego, Calif., USA) and then statistically evaluated.

Test [6] concerns non-prostate tumor cell lines. Described as above. Particulars: 20 minutes incubation. In kind it is cell-based, human. The protocol:
as §12, §13, §14

For test [7], the system named is osteosarcoma cells (U2OS). The test can be described thus: Confocal laser scanning microscopy (CLSM) of cellular uptake. The settings on record: 20 minutes incubation, 260 μM. In kind it is cell-based, human. Here is the method: as §8, §9
The compound 10 was dissolved in culture medium (260 μM). Lys(FITC)-aminobourgeonal (compound 7) was dissolved in culture medium with 1% ethanol (260 μM). The cells were incubated for 20 minutes (compound 10) and for 2 days (compounds 7 and 10). This assay was also performed with free FITC. […]
(§15) The confocal laser scanning microscopy was performed on an inverted LSM510 laser scanning microscope (Carl Zeiss) (objective: LD Achroplan 40×0.6, Plan Neofluar 20×0.50, 40×0.75). For the rhodamine fluorescence excitation the 543 nm beam of a helium-neon laser with suitable beam splitters and barrier filters were used. […]

Test [8] relates to PC-3 prostate carcinoma cells. The test can be described thus: In-vitro MRT / MR relaxometry of cells in Eppendorf tubes. In kind it is cell-based, human. Particulars: rank among cell lines. Here is the method: as §1, §2, §3, §4, §5, §6, §7
For test [9], the system named is healthy prostate cells (CC2555). The description is as above. In kind it is cell-based, human. The settings on record: rank among cell lines. The protocol:
as §1, §2, §3, §4, §5, §6, §7

In test [10] the test system is PC-3 prostate carcinoma cells. The test can be described thus: Confocal laser scanning microscopy (CLSM) of cellular uptake. Type of test: cell-based, human. Particulars: 20 minutes incubation, 260 μM. The protocol: as §8, §9, §10
The compound 10 was dissolved in culture medium (260 μM). Lys(FITC)-aminobourgeonal (compound 7) was dissolved in culture medium with 1% ethanol (260 μM). The cells were incubated for 20 minutes (compound 10) and for 2 days (compounds 7 and 10). This assay was also performed with free FITC. After the incubation the cells were rinsed three times with medium and again incubated in medium. Propidium iodide (PI) (molecular probes, Eugene, Oreg., USA) was added to stain death cells.
as §15

Test [11] has as its system human PC3 prostate carcinoma in the right thigh of a nude mouse. The test can be described thus: Magnetic resonance tomography of nude mouse with implanted tumor. Particulars: 90 minutes after intravenous administration. In kind it is in vivo. Here is the method: PC3 and LNCaP prostate tumor cells were grown to 80% confluency, detached with Accutase™ (PAA Laboratories, Pasching, Austria) and then harvested. The cells were washed with PBS three times and then drawn up into a 30 g Micro-Fine™ insulin syringe (Becton Dickinson, Franklin Lakes, N.J., USA). Approximately 5×10^5 cells per mouse were injected into the right thigh of a male CD1 Nu/Nu mouse (Charles River, WIGA, Sulzfeld, Germany). The tumor growth was monitored and after 10 to 14 days mice bearing tumors with 2-3 mm in diameter were treated with the conjugate. 1.5 mg of the compound 1 were dissolved in 300 μl PBS containing 20% ethanol and applied intraperitoneally. […] Frozen sections (5 μm thickness) were prepared (LD3000 Cryotom, Leica Biosystems GmbH, Nussloch, Germany) and the rhodamine staining was analyzed by confocal laser scanning
The magnetic resonance tomography (MRT) measurements were performed using a clinical 3-Tesla Siemens whole body MRT (Magnetom TRIO; Siemens, Erlangen, Germany) with the mice in prone position in a standard circular polarized wrist coil. The MRT protocol consisted of native and post-contrast T1 weighted axial images: slice thickness 2 mm, field of view read: 60 mm/7.5%, Voxel size: 0.2×0.2×2 mm, repetition time (TR): 800 ms, echo time (TE): 9.1 ms, flip angle: 90°, acquisitions: tions: 2, number of slices: 25, distance factor: 0, scan time 06:02 min. […]

For test [12], the system named is healthy prostate cells (CC2555). The test can be described thus: Fluorescence activated cell sorting (FACS) of cellular uptake. Type of test: cell-based, human. The settings on record: 20 minutes incubation, 130 μM. The protocol:
as §12, §13, §14

Test [13] relates to LNCaP prostate carcinoma cells. Described as above. Type of test: cell-based, human. Particulars: 20 minutes incubation, 130 μM. The protocol: as §12, §13, §14
The subject of test [14] is seven human tumor cell lines and healthy human epithelial prostate cells (CC2555). The test can be described thus: Confocal laser scanning microscopy (CLSM) of cellular uptake, all cell types. In kind it is cell-based. The settings on record: corresponding amount of free dye, 20 minutes. Here is the method:
as §8, §9
The compounds 1, 2 and 4 were dissolved at 1 mg/ml in pure ethanol (Riedel de Haen, Sigma-Aldrich, Taufkirchen, Germany) and then diluted in the appropriate medium for the cells to 10 μg/ml of conjugate and 1% ethanol. The cells were incubated at 37° C. in an atmosphere of 5% CO2 for 20 minutes with the compounds. […]
as §15

Take `O=C([O-])CN1CCN(CC(=O)[O-])CCN(CC(=O)O)CCN(CC(=O)[O-])CC1.[Gd+3]` [Gd-DOTA, reference compound]: the “signal intensity of the cells in T1-weighted MRT images” value in [1] is given as “remain dark”. Besides, the “uptake / signal intensity of the cells in T1-weighted MRT images” value in test [2] (LNCaP) is “not taken up by the prostate carcinoma cells; also recorded: remain dark”.

In the case of `CCN(CC)c1ccc2c(-c3ccc(S(=O)(=O)NCCC(=O)Nc4ccc(/C=C\C=O)cc4)cc3S(=O)(=O)[O-])c3ccc(=[N+](CC)CC)cc-3oc2c1` [compound 2, Sulforhodamine-Sulfonamido βAla-Aminocinnamaldehyde], the “uptake into the cells (rhodamine staining, CLSM)” value is on record as “basically unstained” in test [3] and “significantly stained” in test [4].

In the case of `CCN(CC)c1ccc2c(-c3ccc(S(=O)(=O)NCCC(=O)NCCCCCCCC=O)cc3S(=O)(=O)O)c3ccc(=[N+](CC)CC)cc-3oc2c1` [compound 4, sulforhodamine-sulfonamido βala-aminooctanal], the “fluorescence (rhodamine, FACS)” value is on record as “highest fluorescence” in test [5] (PC3, 10 μg/ml) and “only show little staining” in test [6] (remaining carcinoma cell lines, 10 μg/ml).

As to `O=CCCCCCCCCCCNC(=O)C(CCCCN=S=C=Nc1ccc2c(c1)C(=O)OC21c2ccc(O)cc2Oc2cc(O)ccc21)NC(=O)C[N+]12CC[N+]3(CC(=O)O)CCN(CC(=O)O)CC[N+](CC(=O)O)(CC1)[Gd]32` (centres unmarked) [compound 10, Gd-DOTA-Lys(FITC) aminoundecylic aldehyde], the results for the “uptake into the cells (FITC staining, CLSM)” value in [7] and in test [10] were “not into the osteosarcoma cells” and “very well uptaken into the cytoplasm”, respectively. The “difference of the T1-time (before minus after the incubation)” value in test [8] is “strongest reduction of the T1-time”; in test [9], “strongest reduction of the T1-time”; in test [2] (LNCaP, rank among cell lines), “strongest reduction of the T1-time”. Also, the “signal intensity of the cells in T1-weighted MRT images” value in [1] is given as “only with the LNCaP-prostate carcinoma cells”. Also, the “uptake / signal intensity of the cells in T1-weighted MRT images” value in test [2] (LNCaP) was “uptaken into the cytoplasm of the prostate carcinoma cells; also recorded: increase of the signal intensity”. In test [2] (prostate carcinoma cells (LNCaP)), the “T1-time reduction in comparison to simple Gd-DOTA” value was “significantly stronger T1-time reduction”. Also, the “MRT staining of non-prostate carcinoma cells” value in test [11] is given as “remain unstained”. Besides, the “MRT signal of the prostate carcinoma cells” value in test [11] (10 days after implantation) is listed as “increased signal intensity”. The “staining (FITC fluorescence, FACS)” value in test [5] (PC-3, 130 μM) is listed as “stained”; in test [12], “stained”; in test [13], “stained”; in [6] (non-prostate tumor cell lines, 130 μM), “not the non-prostate tumor cell lines”.

Take “fluorescein isothiocyanate [FITC, reference compound]”: the “uptake into the cells (FITC staining, CLSM)” value in test [7] and in [10] was “not uptaken by the cells” throughout.

Turning to sulforhodamine B, in test [14], the “uptake by any cell type (rhodamine staining, CLSM)” value is given as “not taken up by any cell types”.
